From publication PMC3983353 (Journal of Medicinal Chemistry, 2014)

Columns and labels:
[1] = test system: metastatic melanoma A375 cell line; conditions: read-out: EC50 in A375 cells; cited from earlier work
Sk-Mel28 cells = conditions: read-out: EC50 in Sk-Mel28 cells; cited from earlier work
rat nNOS = rat nNOS (Rattus norvegicus, UniProt P29476)
immortalized melanocytes = conditions: cannot calculate = toxic even at lower concentration and no dose–activity curve occurred

Sequence of rat nNOS (P29476 whole entry): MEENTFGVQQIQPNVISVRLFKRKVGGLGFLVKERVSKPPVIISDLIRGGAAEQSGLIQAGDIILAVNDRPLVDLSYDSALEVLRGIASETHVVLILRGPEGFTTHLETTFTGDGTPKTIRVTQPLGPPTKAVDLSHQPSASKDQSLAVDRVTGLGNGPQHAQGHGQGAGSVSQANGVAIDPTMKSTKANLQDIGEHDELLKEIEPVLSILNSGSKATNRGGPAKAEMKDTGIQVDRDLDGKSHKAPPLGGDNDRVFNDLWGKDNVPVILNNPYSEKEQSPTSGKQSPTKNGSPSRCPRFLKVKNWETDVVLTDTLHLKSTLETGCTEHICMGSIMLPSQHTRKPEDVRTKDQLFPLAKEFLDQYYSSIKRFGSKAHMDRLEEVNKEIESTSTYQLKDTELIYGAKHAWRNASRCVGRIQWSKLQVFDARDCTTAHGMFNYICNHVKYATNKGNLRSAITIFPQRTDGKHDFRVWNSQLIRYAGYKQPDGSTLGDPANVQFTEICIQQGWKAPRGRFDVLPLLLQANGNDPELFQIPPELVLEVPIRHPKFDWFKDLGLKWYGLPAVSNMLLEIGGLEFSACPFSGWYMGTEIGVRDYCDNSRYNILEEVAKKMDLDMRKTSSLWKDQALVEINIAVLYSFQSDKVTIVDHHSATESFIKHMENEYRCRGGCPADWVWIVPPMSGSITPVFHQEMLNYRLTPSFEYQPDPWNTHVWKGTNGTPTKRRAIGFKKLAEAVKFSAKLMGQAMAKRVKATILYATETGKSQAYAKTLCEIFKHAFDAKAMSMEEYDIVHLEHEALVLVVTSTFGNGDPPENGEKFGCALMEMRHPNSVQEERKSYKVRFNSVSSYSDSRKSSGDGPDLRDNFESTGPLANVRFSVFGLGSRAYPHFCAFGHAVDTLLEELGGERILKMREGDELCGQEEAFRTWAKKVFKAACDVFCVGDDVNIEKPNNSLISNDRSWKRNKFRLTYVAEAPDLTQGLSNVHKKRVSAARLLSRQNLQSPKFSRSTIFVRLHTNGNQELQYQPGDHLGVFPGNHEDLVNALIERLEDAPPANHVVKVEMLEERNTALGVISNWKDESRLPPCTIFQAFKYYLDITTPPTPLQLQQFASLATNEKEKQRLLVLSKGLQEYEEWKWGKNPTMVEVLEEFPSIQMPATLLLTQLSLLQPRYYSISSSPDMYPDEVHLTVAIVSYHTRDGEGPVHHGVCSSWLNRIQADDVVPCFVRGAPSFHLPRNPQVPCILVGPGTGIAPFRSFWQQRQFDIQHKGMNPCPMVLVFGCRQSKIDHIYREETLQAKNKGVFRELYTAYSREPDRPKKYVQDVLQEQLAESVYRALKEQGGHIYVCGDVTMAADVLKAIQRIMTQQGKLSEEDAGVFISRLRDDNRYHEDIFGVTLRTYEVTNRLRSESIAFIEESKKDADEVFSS

N.N.[Cl][Pt][Cl] [cisplatin]
EC50 [1]: 4.2 µM
EC50 (Sk-Mel28 cells): 14.3 µM

N=C(Nc1cccc(OCCCOc2cccc(NC(=N)c3cccs3)c2)c1)c1cccs1 [compound 12, N,N′-((Propane-1,3-diylbis(oxy))bis(3,1-phenylene))bis(thiophene-2-carboximidamide)]
lower nNOS potency than 11 (rat nNOS): 2 fold

N=C(Nc1cccc(CCNCc2cccc(NC(=N)c3cccs3)c2)c1)c1cccs1 [compound 13, N-(3-(2-((3-(Thiophene-2-carboximidamido)benzyl)amino)ethyl)phenyl)thiophene-2-carboximidamide]
EC50 immortalized melanocytes (immortalized melanocytes): cannot calculate ^b

CCN(CCc1cccc(F)c1)Cc1cccc(NC(=N)c2cccs2)c1 [compound 17, N-(3-((Ethyl(3-fluorophenethyl)amino)methyl)phenyl)thiophene-2-carboximidamide]
lower nNOS potency than 16 (rat nNOS): ~7 fold
